Measurements from patent publication US8450317B2, “CXCR3 receptor antagonists” (Boehringer Ingelheim International GmbH, priority 2009, dated 2013).

Each compound was assayed against CXCR3 (Macaca fascicularis, UniProt A0A2K5UV19) (assay: functional cellular assay measuring calcium flux in CXCR3 transfected cells (block of CXCR3/IP-10 interaction)). Settings: IP-10 induced intracellular calcium flux; Cyno-CHO cells stably expressing recombinant CXCR3 and G-alpha-16; IP-10 at EC80; read-out: IC50.
Sequence of CXCR3 (A0A2K5UV19 entry or part of it): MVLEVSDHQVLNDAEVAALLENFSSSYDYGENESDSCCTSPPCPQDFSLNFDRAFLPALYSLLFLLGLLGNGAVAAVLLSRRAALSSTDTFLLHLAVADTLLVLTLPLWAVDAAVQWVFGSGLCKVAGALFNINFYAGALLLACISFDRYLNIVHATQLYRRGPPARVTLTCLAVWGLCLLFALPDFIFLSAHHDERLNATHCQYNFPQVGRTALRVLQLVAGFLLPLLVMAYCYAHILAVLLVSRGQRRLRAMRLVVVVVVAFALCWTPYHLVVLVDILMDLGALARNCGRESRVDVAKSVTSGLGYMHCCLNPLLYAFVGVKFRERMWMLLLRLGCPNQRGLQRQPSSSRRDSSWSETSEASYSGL
Type: cell-based, Cyno
Method in brief: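 Cyno-CHO cells stably expressing CXCR3 and G-alpha-16, loaded with Ca-4 dye in HBSS/10 mM HEPES pH 7.4 with 2 mM probenecid for 1 h at 37° C. Compound (final 10 microM) preincubated 15 min at room temperature, then IP-10 at EC80 added; calcium flux read at 480/540 nm.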

`Cc1cc(C)n(CC(=O)N2CCN(c3ccccc3-c3cnc(Oc4cccnc4)nc3)CC2)n1` [2-(3,5-Dimethyl-pyrazol-1-yl)-1-(4-{2-[2-(pyridin-3-yloxy)-pyrimidin-5-yl]-phenyl}-piperazin-1-yl)-ethanone] and `Cc1ccc(-c2ccccc2N2CCN(C(=O)Cn3nc(C)cc3C)CC2)cc1` [2-(3,5-Dimethyl-pyrazol-1-yl)-1-[4-(4′-methyl-biphenyl-2-yl)-piperazin-1-yl]-ethanone] are within 1.5-fold of each other in IC50: 56 nM for the first, 70 nM for the second.

Compared with `CC1CN(c2ccc(C(F)(F)F)cc2-c2cnc(S(C)(=O)=O)nc2)CCN1C(=O)Cn1ccc2cccnc21` (centres unmarked) [1-(2-methyl-4-{2-[2-(methylsulfonyl)pyrimidin-5-yl]-4-(trifluoromethyl)phenyl}piperazin-1-yl)-2-(1H-pyrrolo[2,3-b]pyridin-1-yl)ethanone], `CC1CN(c2ccc(F)cc2-c2cnc(N3CCC(S(C)(=O)=O)CC3)nc2)CCN1C(=O)Cn1ccc2cccnc21` (centres unmarked) [1-[4-(4-fluoro-2-{2-[4-(methylsulfonyl)piperidin-1-yl]pyrimidin-5-yl}phenyl)-2-methylpiperazin-1-yl]-2-(1H-pyrrolo[2,3-b]pyridin-1-yl)ethanone] is 3.8-fold lower in IC50: 30 nM for the first, 8 nM for the second.

First: Cc1cc(C)n(CC(=O)N2CCN(c3ccccc3-c3cnc(N4CCCC(F)(F)C4)nc3)CC2)n1 [1-(4-{2-[2-(3,3-Difluoro-piperidin-1-yl)-pyrimidin-5-yl]-phenyl}-piperazin-1-yl)-2-(3,5-dimethyl-pyrazol-1-yl)-ethanone]
Second: Cc1cc(C)n(CC(=O)N2CCN(c3ccccc3-c3cnc(N4CC[C@@H](N(C)C)C4)nc3)CC2)n1 [1-(4-{2-[2-((R)-3-Dimethylamino-pyrrolidin-1-yl)-pyrimidin-5-yl]-phenyl}-piperazin-1-yl)-2-(3,5-dimethyl-pyrazol-1-yl)-ethanone]
The IC50 of the first is 2.2-fold higher: 9 nM for the first, 4 nM for the second. The second is the more potent here.

Compared with `COc1ccc(-c2ccccc2N2CCN(C(=O)Cn3ccc4cccnc43)CC2)cn1` [1-{4-[2-(6-Methoxy-pyridin-3-yl)-phenyl]-piperazin-1-yl}-2-pyrrolo[2,3-b]pyridin-1-yl-ethanone], `CCNc1ncc(-c2ccccc2N2CCN(C(=O)Cn3ccc4cccnc43)CC2)cn1` [1-{4-[2-(2-Ethylamino-pyrimidin-5-yl)-phenyl]-piperazin-1-yl}-2-pyrrolo[2,3-b]pyridin-1-yl-ethanone] is 3.8-fold lower in IC50: 34 nM for the first, 9 nM for the second.

`O=C(Cn1cnc2cccnc21)N1CCN(c2ccc(F)cc2-c2cnc(N3CCC(O)CC3)nc2)CC1` [1-(4-{4-fluoro-2-[2-(4-hydroxypiperidin-1-yl)pyrimidin-5-yl]phenyl}piperazin-1-yl)-2-(3H-imidazo[4,5-b]pyridin-3-yl)ethanone] and `CC1CN(c2ccccc2-c2cnc(N3CCC(O)CC3)nc2)CCN1C(=O)Cn1ccc2cccnc21` (centres unmarked) [1-(4-{2-[2-(4-hydroxypiperidin-1-yl)pyrimidin-5-yl]phenyl}-2-methylpiperazin-1-yl)-2-(1H-pyrrolo[2,3-b]pyridin-1-yl)ethanone] are within 1.5-fold of each other in IC50: 8 nM for the first, 9 nM for the second.

First: COc1ncc(-c2ccccc2N2CCN(C(=O)Cn3ccc4cc(F)cnc43)CC2)cn1 [2-(5-Fluoro-pyrrolo[2,3-b]pyridin-1-yl)-1-{4-[2-(2-methoxy-pyrimidin-5-yl)-phenyl]-piperazin-1-yl}-ethanone]
Second: COc1ccc(C(=O)NCC(=O)N2CCN(c3ccccc3-c3cnc(N4CCOCC4)nc3)CC2)cc1OC [3,4-Dimethoxy-N-(2-{4-[2-(2-morpholin-4-yl-pyrimidin-5-yl)-phenyl]-piperazin-1-yl}-2-oxo-ethyl)-benzamide]
The IC50 of the first is 8.5-fold lower: 8 nM for the first, 68 nM for the second.

Compared with `COc1cc(NC(=O)c2cc(F)ccc2N2CCN(C(=O)CN3CCCCC3=O)[C@H](C)C2)ccn1` [5-fluoro-N-(2-methoxypyridin-4-yl)-2-{(3R)-3-methyl-4-[(2-oxopiperidin-1-yl)acetyl]piperazin-1-yl}benzamide], `CC1CN(c2ccccc2-c2cnc(S(C)(=O)=O)nc2)CCN1C(=O)Cn1cnc2cccnc21` (centres unmarked) [2-(3H-imidazo[4,5-b]pyridin-3-yl)-1-(2-methyl-4-{2-[2-(methylsulfonyl)pyrimidin-5-yl]phenyl}piperazin-1-yl)ethanone] is 43-fold higher in IC50: 10 nM for the first, 434 nM for the second. The first is the more potent here.
